Structures are written as SMILES. “Also recorded” adds a separate entry of the source.

These results are taken from US20110136839A1, “COMBINATION OF TWO ANALGESIC CHEMICALS” (priority 2009, published 2011).

Series [1] relates to carrageenan-evoked hyperalgesia. Kind of series: Carrageenan model of inflammation, thermal hyperalgesia (paw withdrawal latency). It is filed as in vivo. The settings on record: rat; for reversal of the hypoalgesia by naloxone (opioid receptor antagonist): drug i.pl. at 1 hour, naloxone chloride or naloxone methiodide s.c. at 24 hours after carrageenan; for effect on carrageenan-evoked thermal hyperalgesia (paw withdrawal latency): intraplantar (local) injection in the inflamed paw 1 hour after carrageenan. On the procedure: Rats received a subcutaneous injection of carrageenan (2% in saline, 100 μl) in the right hindpaw (intraplantar injection). Drug or vehicle were administered intraplantarly (i.pl., 50 μl) 1 hour after carrageenan injection and behavioral testing was performed at various time points. Nociceptive threshold responding to heat was determined as described before (Williams et al., 1990; Wisden et al., 1990: Jiang et al., 2006). Briefly, rat was placed in a device that held the body without restraining the head and legs. Noxious heat stimulation was carried out by immersing the hindpaw up to the ankle joint into a slowly stirred water bath at 47.5° C. while holding the animal with the device. […] Paw withdrawal latency for any test time point was measured twice at 3-min intervals and the mean values were calculated. Baseline latency was measured 10 min before drug or vehicle administration.
Effects of ketanserin on carrageenan-evoked hyperalgesia are illustrated in FIG. 1. Paw withdrawal latencies in seconds were measured in plantar test at the various time points. Data were normalized as percentage of pretreatment baseline (100%) and expressed as the mean ±SEM (standard error of mean).
Paw withdrawal latencies in seconds were determined in plantar test at the various time points. Data were normalized as percentage of pretreatment baseline (100%) and expressed as the mean ±SEM. Carrageenan and ketanserin (20 μg) were given i.pl. into unilateral hindpaw at 0 and 1 hour, respectively.
Paw withdrawal latencies in seconds were examined at the various time points. Data were normalized as percentage of pretreatment baseline (100%) and expressed as the mean ±SEM.
Carrageenan and […] (30 μg) were given i.pl. into unilateral hindpaw at 0 and 1 hour, respectively. Then naloxone chloride (5 mg/ml/kg) or naloxone methiodide (10 mg/ml/kg) or saline (1 ml/kg) was injected s.c. (subcutaneous injection) at 24hours after carrageenan. Paw withdrawal latencies in seconds were measured at the various time points.
Carrageenan (2%, 100 μl) was administered i.pl. at 0 hour and saline (50 μl, i.pl.) or ketanserin (2 μg, i.pl.)+WAY100635 (3 μg, i.pl.) at 1 hour. The results are illustrated in FIG. 5. Paw withdrawal latencies in seconds were examined at the various time points.
Carrageenan model—See those described before.

For series [2], the system named is neuropathic pain (SNL). Description: Neuropathic pain model (spinal nerve ligation), thermal threshold of the hindpaw. It is filed as in vivo, rat. The protocol:
PWL responding to heat stimulus ipsilaterally was measured.
Paw withdrawal latency was measured.

A short description of series [3]: Animal study of blood pressure and heart rate. It is filed as in vivo. Conditions: subcutaneous injection at 0.5 mg/kg.
Series [4] deals with carrageenan-evoked hyperalgesia. Description: Carrageenan model of inflammation, thermal hyperalgesia (paw withdrawal latency). It is filed as in vivo. The settings on record: rat; for effect on thermal hyperalgesia in carrageenan model (paw withdrawal latency): subcutaneous (systemic) injection 1 hour after carrageenan; for effect on inflammatory hyperalgesia at higher dose (FIG. 7D): subcutaneous injection at 1 hour, doses higher than those in FIG. 7C. A general note: In the carrageenan paw model, swelling and tenderness develop within hours.

On to `COc1ccccc1N1CCN(CCN(C(=O)C2CCCCC2)c2ccccn2)CC1` [WAY100635], for which, in series [1], the “reversal of the hypoalgesia by naloxone (opioid receptor antagonist)” value (shortened to “reversal of the hypoalgesia by naloxone”) was “mediated by opioid analgesia mechanism” and the “effect on carrageenan-evoked thermal hyperalgesia (paw withdrawal latency)” value was “dose-dependently produces hypoalgesia”.
With `O=C(c1ccc(F)cc1)C1CCN(CCn2c(=O)[nH]c3ccccc3c2=O)CC1` [ketanserin], in series [1], the “reversal of the hypoalgesia by naloxone” value was “abolished by i.p. naloxone” and the “effect on carrageenan-evoked thermal hyperalgesia (paw withdrawal latency)” value is “dose-dependently produces hypoalgesia; also recorded: prolonging in paw withdrawal latency”. Besides, the “reversal of the hypoalgesia by naloxone” value in series [1] (listed as Ketanserin) is listed as “mediated by opioid analgesia mechanism”. For the same compound, the tolerance result in series [2] (rat neuropathic pain model, thermal, s.c. injection) is “without tolerance”. Further, the “thermal nociceptive threshold in Chung's model of neuropathic pain (paw withdrawal latency)” value in series [2] (rat, s.c. starting at day 4 after spinal nerve ligation) is on record as “dose-dependently inhibits”. In series [3], the blood pressure result is reported as “does not alter” and the heart rate entry is listed as “does not alter”. For the same compound, in series [4], the “effect on thermal hyperalgesia in carrageenan model (paw withdrawal latency)” value is recorded as “produces significant inhibition on the nociceptive threshold” and the “effect on inflammatory hyperalgesia at higher dose (FIG. 7D)” value is “exerted stronger effect”.
Consider `COc1cc2nc(N3CCN(C(=O)c4ccco4)CC3)nc(N)c2cc1OC` [prazosin], for which the “effect on carrageenan-evoked thermal hyperalgesia (paw withdrawal latency)” value in series [1] is “failed to alter the carrageenan-evoked response”.
For `CC(C)NCC(O)COc1cccc2ccccc12` (stereo not drawn) [propranolol], in series [1], the “reversal of the hypoalgesia by naloxone” value is listed as “abolished by i.p. naloxone” and the “effect on carrageenan-evoked thermal hyperalgesia (paw withdrawal latency)” value was “prolonging in paw withdrawal latency”. Also, in series [3], the blood pressure entry is “does not alter” and the heart rate entry was “does not alter”. In series [4], the “effect on thermal hyperalgesia in carrageenan model (paw withdrawal latency)” value was “produces significant inhibition on the nociceptive threshold” and the “effect on inflammatory hyperalgesia at higher dose (FIG. 7D)” value is on record as “exerted stronger effect”.
